Source: PubChem BioAssay (NCI)
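Five compound concentrations were applied to cells in 96-well plates for 48 hours; endpoints were derived by simple linear interpolation of the resulting dose-response curve. At the GI50, growth is halved. TGI is the concentration that stops growth completely.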

Experiments:
Experiment in all cases: NCI-60 cell line screen, 48 h
786-0 renal = tested on: 786-0 renal
CAKI-1 renal = tested on: CAKI-1 renal
HCT-15 colon = tested on: HCT-15 colon
HOP-18 NSCLC = tested on: HOP-18 NSCLC
IGROV1 ovarian = tested on: IGROV1 ovarian
NCI-H226 lung = tested on: NCI-H226 lung
NCI-H23 lung = tested on: NCI-H23 lung
RXF 393 renal = tested on: RXF 393 renal
SK-OV-3 ovarian = tested on: SK-OV-3 ovarian
SR leukemia = tested on: SR leukemia

Row | SMILES | TGI (786-0 renal) | TGI (CAKI-1 renal) | TGI (HCT-15 colon) | TGI (HOP-18 NSCLC) | TGI (IGROV1 ovarian) | TGI (NCI-H226 lung) | TGI (NCI-H23 lung) | TGI (RXF 393 renal) | TGI (SK-OV-3 ovarian) | TGI (SR leukemia) | GI50 (786-0 renal) | GI50 (CAKI-1 renal) | GI50 (HCT-15 colon) | GI50 (HOP-18 NSCLC) | GI50 (IGROV1 ovarian) | GI50 (NCI-H226 lung) | GI50 (NCI-H23 lung) | GI50 (SK-OV-3 ovarian)
1 | C[N+](C)(C)CC1CCCCC1O (stereo not drawn) | > 100 µM | > 100 µM | > 100 µM | > 100 µM | > 100 µM | > 100 µM | > 100 µM | > 100 µM | > 100 µM | > 100 µM | – | – | – | – | – | – | – | –
2 | CCCCN(CC)CC(C(C)=O)c1c(O)c2ccccc2oc1=O (stereo not drawn) | > 100 µM | > 100 µM | > 100 µM | > 100 µM | > 100 µM | > 100 µM | > 100 µM | > 100 µM | > 100 µM | > 100 µM | – | – | – | – | – | – | – | –
3 | CC(C)(Oc1ccc(/C=C/C(=O)c2ccc(Cl)cc2)cc1)C(=O)Nc1c(Cl)cccc1Cl | 45.8 µM | 48.9 µM | 29.3 µM | > 100 µM | 76.3 µM | 51.5 µM | 40.9 µM | 36.9 µM | > 100 µM | > 100 µM | – | – | – | – | – | – | – | –
4 | C/C(=N/NC(=O)C[N+](C)(C)C)C(CN(C)C)C(=O)Nc1ccccc1 (stereo not drawn) | > 100 µM | > 100 µM | > 100 µM | > 100 µM | > 100 µM | > 100 µM | > 100 µM | > 100 µM | > 100 µM | > 100 µM | – | – | – | – | – | – | – | –
5 | O=[N+]([O-])c1ccc(Sc2c3ccccc3nc3cc(Cl)ccc23)cc1 | > 100 µM | > 100 µM | > 100 µM | > 100 µM | > 100 µM | > 100 µM | > 100 µM | > 100 µM | > 100 µM | 68.1 µM | > 100 µM | > 100 µM | > 100 µM | > 100 µM | > 100 µM | > 100 µM | > 100 µM | > 100 µM
6 | C=CC(OCC)(OCC)OCC | 58.7 µM | > 100 µM | > 100 µM | > 100 µM | > 100 µM | > 100 µM | > 100 µM | > 100 µM | > 100 µM | 65.4 µM | – | – | – | – | – | – | – | –
7 | CSC(=S)N/N=C/c1nccc2ccccc12 | 12.6 µM | 14.2 µM | 40 µM | 9.78 µM | 8.05 µM | 12 µM | 5.03 µM | 6.01 µM | 29.8 µM | 18.8 µM | – | – | – | – | – | – | – | –
8 | O=C(/C=C/c1ccccc1)c1ccc(NCc2nc3ccccc3[nH]2)cc1 | 14.4 µM | 25.2 µM | 15.9 µM | 17.6 µM | 19.8 µM | 16.8 µM | 11 µM | 16.8 µM | 18.1 µM | > 35.3 µM | – | – | – | – | – | – | – | –
9 | CN(C)C(=S)/N=c1\ssc(=S)n1Cc1ccncc1 | 66 µM | 75.6 µM | 55.1 µM | 57.6 µM | 63.3 µM | > 100 µM | 60.7 µM | 70 µM | 72.2 µM | 45.4 µM | – | – | – | – | – | – | – | –
